# Measured values published in paper PMC10714400, “Antimicrobial Peptide–Peptoid Hybrids with and without Membrane Disruption” (ACS Infectious Diseases, 2023).
# Tests used:
# A. baumannii ATCC19606 = test system: A. baumannii ATCC19606
# Experimental: (§1) Antimicrobial activity was assayed for all the peptide–peptoids against P. aeruginosa PAO1, K. pneumoniae NCTC418, E. coli W3110, A. baumannii ATCC 19606, methicillin-resistant S. aureus COL (MRSA), and for selected peptides on P. aeruginosa PA14 and the polymyxin-B-resistant derivatives PA14 4.13, PA14 4.18, PA14 2P4, as well as the clinical isolates ZEM-1A and ZEM9A, K. pneumoniae OXA-48, S. aureus Newman, Enterobacter cloacae, Stenotrophomonas maltophilia, Burkholderia cenocepacia, and Staphylococus epidermidis. To determine the Minimal Inhibitory Concentration (MIC), the Broth Microdilution method was used.[72] A colony of bacteria was picked and grown in LB medium overnight at 37 °C.
# (§2) To each well was finally added 4 μL of the diluted bacterial suspension (see above), corresponding to approximately 5 × 10^5 CFU. For each test, two columns of the plate were kept for sterility control (medium only), growth control (medium with bacterial inoculum, no compound). The positive control, Polymyxin B (starting with a concentration of 16 μg/mL) in MH medium with bacterial inocula, was introduced in the two lines of the plate. The plates were incubated at 37 °C for ca. 18 h under static conditions. Next, 15 μL of 3-(4,5-dimethylthiazol-2-yl)-2,5-diphenyltetrazolium bromide (MTT)[73] (1 mg/mL in sterilized MilliQ deionized water) were added to each well, and the plates were incubated for 20–30 min at room temperature. The minimal inhibitory concentration (MIC) was defined as the lowest concentration of the compound that inhibits the visible growth of the tested bacteria (yellow) with the unaided eye.
# E. cloacae = settings: Table S3; […] MH at pH 8.5
# Experimental: as §1, §2
# E. coli W3110 = test system: E. coli W3110
# Experimental: as §1, §2
# K. pneumoniae NCTC418 = test system: K. pneumoniae NCTC418
# Experimental: as §1, §2
# K. pneumoniae OXA-48 = settings: Table S3; […] MH at pH 8.5
# Experimental: as §1, §2
# P. aeruginosa PAO1 [1] = test system: P. aeruginosa PAO1
# Experimental: as §1, §2
# PA14 2P4 (pmrB) = settings: diluted MH ([…] MH) at pH 8.5 (Table 2 footnote b)
# Experimental: as §1, §2
# PA14 4.13 (phoQ) = settings: diluted MH ([…] MH) at pH 8.5 (Table 2 footnote b)
# Experimental: as §1, §2
# PA14 4.18 (pmrB) = settings: diluted MH ([…] MH) at pH 8.5 (Table 2 footnote b)
# Experimental: as §1, §2
# S. aureus COL (MRSA) = settings: Table S2
# Experimental: as §1, §2
# [2] = test system: ZEM-1A (clinical MDR P. aeruginosa isolate); settings: Table S3; […] MH at pH 8.5
# Experimental: as §1, §2
# [3] = test system: ZEM9A (clinical MDR P. aeruginosa isolate); settings: Table S3; […] MH at pH 8.5
# Experimental: as §1, §2
# [4] = Circular dichroism, α-helical content; type: physicochemical; settings: 0.1 mg/mL; for CD %α with 5 mM DPC: 10 mM phosphate buffer pH 7.4, 5 mM DPC; for CD %α with 20% TFE: 10 mM phosphate buffer pH 7.4, 20% TFE
# B. cenocepacia = settings: 4 h, pH 8.5
# Experimental: as §1
# as §2, with “The plates were incubated at 37 °C for ca. 18 h under static conditions.” left out
# P. aeruginosa PA14 = settings: Table S3; […] MH at pH 8.5, 16-20 hours at 37 °C
# Experimental: as §1
# as §2, with “The plates were incubated at 37 °C for ca. 18 h under static conditions.” left out
# S. aureus Newman = settings: Table S3; […] MH at pH 8.5
# Experimental: as §1
# as §2, with “The plates were incubated at 37 °C for ca. 18 h under static conditions.” left out
# S. epidermis = settings: Table S3; […] MH at pH 8.5
# Experimental: as §1
# as §2, with “The plates were incubated at 37 °C for ca. 18 h under static conditions.” left out
# S. maltophilia = settings: Table S3; […] MH at pH 8.5
# Experimental: as §1
# as §2, with “The plates were incubated at 37 °C for ca. 18 h under static conditions.” left out
# P. aeruginosa PAO1 [5] = experiment: Bacterial count after treatment, before TEM sample preparation; type: cell-based, Pseudomonas aeruginosa; settings: P. aeruginosa PAO1, […] MH pH 8.5, 10x MIC
# Experimental: (§3) Just before the samples were further prepared for the microscopy, surviving bacteria were quantified by plating 10-fold dilutions of samples in sterilized normal saline (NaCl 0.9%) on LB agar plates. […] The assay was performed in triplicate. Each bacteria sample was centrifuged at 12,000 rpm for 3 min, and the supernatant was discarded. The samples were then further processed and imaged using our previously described protocol.[64]
# 8. Transmission electron microscopy (TEM)
# Table S4: Bacterial counts, 2 hours after treatment, before TEM sample preparation. Data represents triplicates.
# Bacteria count after treatment at 10x MIC and 2 h of incubation at 37 °C
# Control (non-treated cells) 1 × 10^8 CFU (100)
# P. aeruginosa PAO1 [6] = experiment: Transmission electron microscopy (TEM); type: cell-based, Pseudomonas aeruginosa; settings: P. aeruginosa PAO1, 10 × MIC, […] MH at pH 8.5, 2 h at 37 °C
# Experimental: Scale bars are 500 nm and 1 μm. Red arrows: membrane perturbations. Blue arrows: intracellular aggregation. Yellow arrows: empty area within the cell.
# as §3
substance,measurement,setting,value
"H-VDKPPYLPRPRPPRRIYNR-NH2 [Onc, reference compound]",MIC A. baumannii ATCC19606 Full MH 8.5,"A. baumannii ATCC19606; ATCC19606, 4 h, pH 8.5",8 µg/mL
same,MIC A. baumannii ATCC19606 […] 7.4,"A. baumannii ATCC19606; Table S2, […] MH, pH 7.4",4 µg/mL
same,MIC A. baumannii ATCC19606 […] 8.5,"A. baumannii ATCC19606; Table S2, […] MH, pH 8.5",4 µg/mL
same,MIC A. baumannii ATCC19606 Full MH 7.4,"A. baumannii ATCC19606; Table S2, full MH, pH 7.4",32 µg/mL
same,Activity increase in dilute medium,"A. baumannii ATCC19606; […] MH vs full MH, A. baumannii",4 fold
same,MIC E. cloacae,E. cloacae,2 µg/mL
same,Antibacterial activity as a function of NaCl concentration,"E. coli W3110; E. coli W3110, […] MH at pH 8.5, up to 300 mM NaCl",strongly reduced
same,MIC E. coli W3110 […] 7.4,"E. coli W3110; Table S2, […] MH, pH 7.4",1 µg/mL
same,MIC E. coli W3110 […] 8.5,"E. coli W3110; Table S2, […] MH, pH 8.5",1 µg/mL
same,MIC E. coli W3110 Full MH 7.4,"E. coli W3110; Table S2, full MH, pH 7.4",4 µg/mL
same,MIC E. coli W3110 Full MH 8.5,"E. coli W3110; Table S2, full MH, pH 8.5",1 µg/mL
same,Activity increase in dilute medium,"E. coli W3110; […] MH vs full MH, E. coli",4 fold
same,MIC K. pneumoniae NCTC418 […] 7.4,"K. pneumoniae NCTC418; Table S2, […] MH, pH 7.4",1 µg/mL
same,MIC K. pneumoniae NCTC418 […] 8.5,"K. pneumoniae NCTC418; Table S2, […] MH, pH 8.5",1 µg/mL
same,MIC K. pneumoniae NCTC418 Full MH 7.4,"K. pneumoniae NCTC418; Table S2, full MH, pH 7.4",4 µg/mL
same,MIC K. pneumoniae NCTC418 Full MH 8.5,"K. pneumoniae NCTC418; Table S2, full MH, pH 8.5",4 µg/mL
same,Activity increase in dilute medium,"K. pneumoniae NCTC418; […] MH vs full MH, K. pneumoniae",4 fold
same,MIC K. pneumoniae OXA-48,K. pneumoniae OXA-48,1 µg/mL
same,Antibacterial activity as a function of NaCl concentration,"P. aeruginosa PAO1 [1]; P. aeruginosa PAO1, […] MH at pH 8.5, up to 300 mM NaCl",strongly reduced
same,MIC P. aeruginosa PAO1 […] 7.4,"P. aeruginosa PAO1 [1]; Table S2, […] MH, pH 7.4",32 µg/mL
same,MIC P. aeruginosa PAO1 Full MH 7.4,"P. aeruginosa PAO1 [1]; Table S2, full MH, pH 7.4",> 32 µg/mL
same,MIC P. aeruginosa PAO1 Full MH 8.5,"P. aeruginosa PAO1 [1]; Table S2, full MH, pH 8.5",> 32 µg/mL
same,MIC PA14 2P4 (pmrB),PA14 2P4 (pmrB),2 µg/mL
same,MIC PA14 4.13 (phoQ),PA14 4.13 (phoQ),2 µg/mL
same,MIC PA14 4.18 (pmrB),PA14 4.18 (pmrB),2 µg/mL
same,MIC S. aureus COL (MRSA) […] 7.4,"S. aureus COL (MRSA); […] MH, pH 7.4",32 µg/mL
same,MIC S. aureus COL (MRSA) Full MH 7.4,"S. aureus COL (MRSA); full MH, pH 7.4",> 32 µg/mL
same,MIC S. aureus COL (MRSA) Full MH 8.5,"S. aureus COL (MRSA); full MH, pH 8.5",> 32 µg/mL
same,MIC P. aeruginosa ZEM-1A,[2],2 µg/mL
same,MIC P. aeruginosa ZEM9A,[3],16 µg/mL
same,CD %α with 5 mM DPC,"[4]; DichroWeb, Contin-LL",20%
same,CD %α with 20% TFE,"[4]; DichroWeb, Contin-LL",23%
same,CD %α with 5 mM DPC,[4]; Table S2,20%
same,CD %α with 20% TFE,[4]; Table S2,23%
same,MIC B. cenocepacia,B. cenocepacia,32 µg/mL
same,MIC P. aeruginosa PA14,P. aeruginosa PA14,2 µg/mL
same,MIC S. aureus Newman,S. aureus Newman,1 µg/mL
same,MIC S. epidermis,S. epidermis,4 µg/mL
same,MIC S. maltophilia,S. maltophilia,> 32 µg/mL
same,Bacteria count after treatment at 10x MIC and 2 h of incubation at 37 °C (% of control),P. aeruginosa PAO1 [5],0.01 % of control
same,"TEM micrographs, changes in treated bacteria",P. aeruginosa PAO1 [6],aggregation of intracellular components
